Data set [1] in a line: Plasma concentrations of the transporter inhibitors around expected time to Cmax. The data set is classed as in vivo, healthy male subjects. The conditions noted are these: cimetidine 400 mg multiple doses; current study.
The conditions of data set [2]: for AUC0–tz Ratio T/R / Cmax Ratio T/R: cocktail + probenecid vs cocktail alone.
The conditions of data set [3]: for AUC0–tz Ratio T/R / Cmax Ratio T/R: cocktail + cimetidine vs cocktail alone.
For data set [4] the following is noted: cited from earlier work.
Data set [5] is described as follows: Safety and tolerability assessment. The data set is classed as in vivo, healthy male subjects. The conditions noted are these: one subject, upon administration of probenecid 1000 mg.
Setting [6] is: cocktail + rifampin vs cocktail alone.
Setting [7] is: cocktail + verapamil vs cocktail alone.
Setting [8] is: cocktail with single-dose rifampin vs cocktail alone.
Setting [9] is: cocktail with single-dose verapamil vs cocktail alone.
[10] abbreviates: cocktail (metformin 10 mg) with cimetidine vs cocktail alone.
Setting [11] is: cocktail (furosemide 1 mg) with probenecid vs cocktail alone.
Where [12] appears, read: metformin 500 mg with cimetidine vs alone.

“Also recorded” adds a separate entry of the source. Read-outs that look alike come from different tables or passages of the source.

Regarding `CN/C(=N/CCSCc1nc[nH]c1C)NC#N` [Cimetidine, cimetidine], in data set [1], the maximum plasma concentrations is 4.24 to 11.1 µM.

As for `C[C@H]1O[C@@H](O[C@H]2[C@@H](O)C[C@H](O[C@H]3[C@@H](O)C[C@H](O[C@H]4CC[C@@]5(C)[C@H](CC[C@@H]6[C@@H]5C[C@@H](O)[C@]5(C)[C@@H](C7=CC(=O)OC7)CC[C@]65O)C4)O[C@@H]3C)O[C@@H]2C)C[C@H](O)[C@@H]1O` [Digoxin, digoxin], the “AUC0–tz Ratio T/R” value under setting [6] is reported as 131.41%, the “AUC0–tz Ratio T/R” value under setting [7] turned out to be 100.70%, the “AUC0–tz Ratio T/R” value in data set [2] is reported as 106.78% and the “AUC0–tz Ratio T/R” value in data set [3] came out at 125.61%. Moreover, the “Cmax Ratio T/R” value under setting [6] is given as 218.26%, the “Cmax Ratio T/R” value under setting [7] is given as 121.64%, the “Cmax Ratio T/R” value in data set [2] is 87.07% and the “Cmax Ratio T/R” value in data set [3] was 122.03%. For the same compound, the “increase of AUC0–tz” value under setting [8] is 31% and the “increase of AUC0–tz” value in data set [3] (setting [10]) was found to be 26%. The “increase of Cmax” value amounted to 118% under setting [8] and 22% under setting [9]. Further, the “effect on AUC0–tz” value under setting [9] is on record as “unaltered; also recorded: unchanged”. Under setting [9], the “effect on CLR” value was “unchanged”. Also, the “effect of probenecid on systemic exposure” value in data set [2] (cocktail with probenecid vs cocktail alone) is listed as “no relevant effect”. Further, in data set [4] (digoxin with verapamil administered over multiple days), the increase in exposure is 44–77%.

As to `NS(=O)(=O)c1cc(C(=O)O)c(NCc2ccco2)cc1Cl` [Furosemide, furosemide], the “decrease of CLR” value was found to be 74% in data set [2] (setting [11]) and 76% in data set [2] (furosemide 40 mg with probenecid vs alone).

For the compound `CN(C)C(=N)N=C(N)N` [Metformin, metformin], in data set [3] (setting [10]), the “increase of AUC0–tz” value is recorded as 31% and the “increase of Cmax” value was determined as 23%. In data set [3] (setting [12]), the “increase of AUC0–tz” value is recorded as 51% and the “increase of Cmax” value was 41%. Also, the “increase in systemic exposure” value in data set [4] (metformin with cimetidine, previous findings) is reported as 45–70%. The increase in exposure in data set [4] (metformin with rifampin coadministration) is recorded as 10%.

With `CCCN(CCC)S(=O)(=O)c1ccc(C(=O)O)cc1` [Probenecid, probenecid], in data set [5], the “AEs leading to premature withdrawal from treatment” value is recorded as “nausea, dizziness”.

Turning to `CC(C)c1nc(N(C)S(C)(=O)=O)nc(-c2ccc(F)cc2)c1/C=C/[C@@H](O)C[C@@H](O)CC(=O)O` [Rosuvastatin, rosuvastatin], the “AUC0–tz Ratio T/R” value under setting [6] turned out to be 348.06%, the “AUC0–tz Ratio T/R” value under setting [7] was 113.40%, the “AUC0–tz Ratio T/R” value in data set [2] is listed as 223.24% and the “AUC0–tz Ratio T/R” value in data set [3] stood at 107.42%. Besides, the “Cmax Ratio T/R” value under setting [6] was determined as 1125.10%, the “Cmax Ratio T/R” value under setting [7] is recorded as 115.39%, the “Cmax Ratio T/R” value in data set [2] is recorded as 428.23% and the “Cmax Ratio T/R” value in data set [3] is recorded as 116.88%. Besides, the “increase of AUC0–tz” value under setting [8] was found to be 248% and the “increase of AUC0–tz” value in data set [2] (setting [11]) came to 123%. Also, the “increase of Cmax” value under setting [8] worked out at 1025% and the “increase of Cmax” value in data set [2] (setting [11]) turned out to be 328%. The “effect of verapamil on systemic exposure” value under setting [9] was “no effect”. In addition, the “decrease of CLR” value in data set [2] (setting [11]) was found to be 78%. In addition, the “effect of cimetidine on systemic exposure” value in data set [3] (cocktail with cimetidine vs cocktail alone) was “no effect”.
